Results from patent US20160367622A1, “AGONISTS OF GUANYLATE CYCLASE USEFUL FOR THE TREATMENT OF OPIOID INDUCED DYSFUNCTIONS” (priority 2013, published 2016).
Positions of bridges follow the written chain, without caps; N, C: chain ends. Non-standard residues stand in square brackets, D forms with d. No end group written: not given here.

Legend:
T84 cells monolayer = settings: for effect on SP-333 stimulation of Isc: T84 cells monolayer, opioid either pre or post SP-333 treatment; for effect on 1 μM SP-333-stimulated Isc: apical pre-treatment with 5 μM opioid for 5 min
rat jejunum tissue = settings: for effect of inhibitor on SP-333-stimulated Isc / effect on 1 μM SP-333-stimulated Isc: rat jejunum; for effect of inhibitor on SP-333-stimulated Isc: inhibitor pretreatment 5 min, then 1 μM SP-333; for effect on SP-333 stimulation of Isc: rat jejunum tissue, opioid either pre or post SP-333 treatment; for effect on 1 μM SP-333-stimulated Isc: apical pre-treatment with 5 μM opioid for 5 min
[1] = test system: female Sprague-Dawley CD rats; assay: methadone-induced constipation in rats (fecal output); assay type: in vivo, rat; settings: for average number of fecal pellets over 4 h, lower compared to the vehicle group: light cycle
Description: To identify the methadone dose that induces constipation in rats, female Sprague-Dawley CD rats 7 to 8 weeks of age (n=6/group) were administered 0 (vehicle), 2.5, 5, and 7.5 mg/kg of methadone (1.5 ml/kg dose volume) by IP injection once a day for 5 days. Fecal pellets were collected at 4 h intervals during the light cycle and average number of pellets was recorded for each group during the course of the study following daily dose administrations of methadone.
To evaluate the ability of SP-333 to relieve methadone-induced constipation, female Sprague-Dawley CD rats 7 to 8 weeks of age (n=7/group) were administered 5 mg/kg of methadone (or vehicle) each day for 7 days via IP injection to induce constipation. Ten minutes following the IP dose each day, an oral gavage of 2.5, and 5 mg/kg of SP-333 or vehicle (buffer) was administered. Fecal pellets were collected at 4 h intervals during the light cycle and average number of pellets recorded for each group during the course of the study following daily administration of vehicle, methadone or combination of methadone and SP-333.

[2] = test system: female Sprague-Dawley CD rats; assay: as above; assay type: in vivo, rat
[3] = test system: female Sprague-Dawley rats; assay: methadone-induced delay in rat GI transit (charcoal meal); assay type: in vivo
Description: (§1) Animals: All study procedures were conducted under a study outline approved by the Institutional Animal Care and Use Committee of MB Research Labs (Spinnerstown, Pa.) or Lampire Biological Laboratories (Pipersville, Pa.). Seven to eight week old female Sprague-Dawley rats [Crl:CD(SD)], weighing between ˜180-210 grams, were obtained from Charles River Laboratories and allowed to acclimate for a week. Animals were maintained on a 12 hour light-dark cycle. For intestinal tissue collection and evaluation of GI transit, rats were fasted for at least 18 hours before the experiment, with free access to water.
(§2) The ability of opioids to delay GI transit in rats was tested by either administering 0 (vehicle) 0.25, 1 and 2.5 mg/kg of morphine or 0 (vehicle), 0.25, 2.5 and 5 mg/kg of methadone (1.5 ml/kg dose volume) by IP injection. Water served as vehicle control. Ten minutes later, a 2 mL charcoal meal consisting of 10% activated charcoal (Sigma-Aldrich, St. Louis, Mo.) and 10% gum Arabic (Sigma-Aldrich, St. Louis, Mo.) in water was administered via oral gavage. Rats were euthanized 10 min after the charcoal meal via IP injection of 150 mg/kg Beuthanasia-D solution (sodium pentobarbital, 390 mg/mL). The small intestine was removed and the total length from the pyloric sphincter to the ileocecal junction was recorded, as well as the distance traveled by the leading edge of the charcoal. Intestinal transit was determined by calculating the ratio (expressed as a percentage) of the distance between the pyloric sphincter and the leading edge of the charcoal to the distance between the pyloric sphincter and the ileocecal junction.
To evaluate the ability of SP-333 to reverse methadone induced delayed GI transit, animals were administered 2.5 mg/kg of methadone by IP injection. Ten minutes later, an oral gavage of 0 (vehicle), 0.1, 0.5, 2.5, 5 and 50 mg/kg of SP-333 (1.5 ml/kg dose volume) was administered followed immediately by a 2 mL oral gavage of the charcoal meal. Ten minutes after the charcoal meal, animals were euthanized and intestinal transit was calculated as described above.

[4] = test system: female Sprague-Dawley CD rats; assay: GI transit delay induced by repeated methadone administration in rats; assay type: in vivo, rat; settings: after 16 doses (once daily; 7 doses at 5 mg/kg and 9 doses at 2.5 mg/kg)
Description: The ability of SP-333 to alleviate GI transit delay induced by repeated methadone administration was also evaluated in the similar manner. Female Sprague-Dawley CD rats 7 to 8 weeks of age (n=7/group) received via IP injection 16 doses of methadone (once daily; 7 doses @ 5 mg/kg and 9 doses @ 2.5 mg/kg). Ten minutes following each methadone dose, each group received an oral gavage of vehicle, 2.5, and 5 mg/kg of SP-333. At the end of the dosing regimen, animals were fasted overnight and GI transit was evaluated as described above.

[5] = test system: female Sprague-Dawley rats; assay: morphine-induced delay in rat GI transit (charcoal meal); assay type: in vivo; settings: for GI transit slowed compared to vehicle controls: rats
Description: as §1, §2
To evaluate the ability of SP-333 to reverse morphine induced delayed GI transit, animals were administered 2.5 mg/kg of morphine by IP injection followed immediately by oral gavage of 0 (vehicle), 0.5, 2.5, 5 and 50 mg/kg of SP-333 (1.5 ml/kg dose volume). Water served as vehicle control. Charcoal meal was administered ten minutes later and animals were euthanized ten minutes after the charcoal meal and intestinal transit was calculated as described above.

[6] = target: T1, guanylate cyclase-C (GC-C) in rat jejunum (rat, UniProt P23897 23-1072); assay: cell-based or functional assay
T1 sequence (looked up): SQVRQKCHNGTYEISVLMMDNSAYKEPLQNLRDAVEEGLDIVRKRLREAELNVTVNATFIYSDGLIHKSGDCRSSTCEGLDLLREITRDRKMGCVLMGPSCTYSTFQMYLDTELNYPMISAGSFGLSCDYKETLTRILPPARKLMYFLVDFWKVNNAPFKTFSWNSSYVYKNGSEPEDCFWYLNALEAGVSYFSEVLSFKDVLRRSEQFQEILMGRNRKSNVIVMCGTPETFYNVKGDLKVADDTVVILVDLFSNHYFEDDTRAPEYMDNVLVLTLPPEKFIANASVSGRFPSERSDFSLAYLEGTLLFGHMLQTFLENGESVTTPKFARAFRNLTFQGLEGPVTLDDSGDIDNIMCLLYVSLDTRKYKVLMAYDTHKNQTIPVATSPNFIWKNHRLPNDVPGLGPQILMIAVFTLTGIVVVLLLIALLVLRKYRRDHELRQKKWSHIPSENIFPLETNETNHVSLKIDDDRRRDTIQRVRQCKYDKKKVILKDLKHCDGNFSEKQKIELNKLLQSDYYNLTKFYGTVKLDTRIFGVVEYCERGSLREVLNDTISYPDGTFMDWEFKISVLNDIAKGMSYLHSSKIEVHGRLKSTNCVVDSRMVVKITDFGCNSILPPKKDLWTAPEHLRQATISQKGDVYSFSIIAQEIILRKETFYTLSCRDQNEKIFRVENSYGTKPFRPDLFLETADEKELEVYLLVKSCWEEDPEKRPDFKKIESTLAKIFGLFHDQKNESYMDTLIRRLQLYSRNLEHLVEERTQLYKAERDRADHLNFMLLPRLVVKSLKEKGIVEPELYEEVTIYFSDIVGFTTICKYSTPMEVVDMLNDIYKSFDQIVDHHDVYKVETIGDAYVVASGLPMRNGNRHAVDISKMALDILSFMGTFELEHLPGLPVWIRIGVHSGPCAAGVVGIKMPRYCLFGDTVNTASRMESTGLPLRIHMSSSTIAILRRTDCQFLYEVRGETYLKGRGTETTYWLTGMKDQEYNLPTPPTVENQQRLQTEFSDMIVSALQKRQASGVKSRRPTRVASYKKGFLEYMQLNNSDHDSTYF

[7] = target: guanylate cyclase-C (GC-C) on T84 cells (human (T84, human carcinoma cell line), UniProt P25092 24-1073); assay: cell-based or functional assay
guanylate cyclase-C (GC-C) on T84 cells, sequence (P25092 24-1073): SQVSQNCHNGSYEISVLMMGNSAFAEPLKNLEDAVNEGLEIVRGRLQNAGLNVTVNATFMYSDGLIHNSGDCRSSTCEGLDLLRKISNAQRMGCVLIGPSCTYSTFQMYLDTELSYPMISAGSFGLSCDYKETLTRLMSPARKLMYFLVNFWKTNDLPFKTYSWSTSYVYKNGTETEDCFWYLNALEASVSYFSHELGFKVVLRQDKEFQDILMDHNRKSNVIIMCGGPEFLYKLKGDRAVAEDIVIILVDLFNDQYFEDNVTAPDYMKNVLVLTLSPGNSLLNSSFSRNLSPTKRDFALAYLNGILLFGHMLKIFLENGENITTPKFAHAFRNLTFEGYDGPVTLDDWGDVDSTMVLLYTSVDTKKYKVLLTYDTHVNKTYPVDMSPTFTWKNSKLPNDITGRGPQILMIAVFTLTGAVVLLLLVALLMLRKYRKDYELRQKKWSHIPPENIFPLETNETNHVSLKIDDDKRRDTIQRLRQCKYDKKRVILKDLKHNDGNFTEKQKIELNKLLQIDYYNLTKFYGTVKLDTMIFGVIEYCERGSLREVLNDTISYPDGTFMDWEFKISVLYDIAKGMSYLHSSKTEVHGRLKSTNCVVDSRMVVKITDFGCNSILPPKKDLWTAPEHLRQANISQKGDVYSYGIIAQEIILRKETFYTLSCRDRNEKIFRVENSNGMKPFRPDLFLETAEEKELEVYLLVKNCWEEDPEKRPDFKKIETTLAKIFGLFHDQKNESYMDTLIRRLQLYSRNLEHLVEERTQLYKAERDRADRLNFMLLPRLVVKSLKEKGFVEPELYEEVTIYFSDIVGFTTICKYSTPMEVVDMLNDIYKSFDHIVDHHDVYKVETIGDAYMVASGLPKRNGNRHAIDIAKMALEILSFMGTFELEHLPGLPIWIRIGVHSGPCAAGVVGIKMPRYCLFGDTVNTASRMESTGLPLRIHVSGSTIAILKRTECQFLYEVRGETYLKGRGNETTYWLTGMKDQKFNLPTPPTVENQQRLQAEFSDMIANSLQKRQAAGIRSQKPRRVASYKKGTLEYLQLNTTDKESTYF

O=C(O)c1ccc(/C=C2\SC(=S)N(c3cccc(C(F)(F)F)c3)C2=O)cc1 [CFTRinh172]
suppression in SP-333-stimulated Isc (T84 cells monolayer; T84 cells, 10 μM inhibitor, vs 1 μM SP-333 alone): 80%
effect of inhibitor on SP-333-stimulated Isc (rat jejunum tissue): less compared to that detected in T84 cells

Nc1ncnc2c1nc(Sc1ccc(Cl)cc1)n2[C@@H]1O[C@@H]2COP(=O)(O)O[C@H]2[C@H]1O [CPT-cAMP]
stimulation of Isc across T84 cell monolayers (T84 cells monolayer): stimulate Isc

Nc1nc2c(nc(Sc3ccc(Cl)cc3)n2[C@@H]2O[C@@H]3COP(=O)(O)O[C@H]3[C@H]2O)c(=O)[nH]1 [CPT-cGMP]
stimulation of Isc across T84 cell monolayers (T84 cells monolayer): stimulate Isc

[Cl][Cd][Cl] [CdCl2]
decrease in SP-333-stimulated Isc (T84 cells monolayer; T84 cells, 300 μM, 1 μM SP-333): No appreciable decrease
effect of inhibitor on SP-333-stimulated Isc (rat jejunum tissue): minimal effect

COC(=O)[C@@]1(OC)C[C@H]2O[C@]1(C)n1c3ccccc3c3c4c(c5c6ccccc6n2c5c31)C(=O)N(C)C4 [PKG-II inhibitor]
suppression of relative SP-333-stimulated Isc (T84 cells monolayer; T84 cells, 4 μM inhibitor, 1 μM SP-333): approximately 35%

CCC(=O)C(CC(C)N(C)C)(c1ccccc1)c1ccccc1 (stereo not drawn) [methadone]
average number of fecal pellets over 4 h, lower compared to the vehicle group ([1]; 2.5 mg/kg IP once daily for 5 days): 29%
average number of fecal pellets over 4 h, lower compared to the vehicle group ([1]; 5 mg/kg IP once daily for 5 days): 77%
average number of fecal pellets over 4 h, lower compared to the vehicle group ([1]; 7.5 mg/kg IP once daily for 5 days): 54%
average number of fecal pellets, less vs vehicle control ([1]; methadone alone, 5.0 mg/kg IP daily 7 days then 2.5 mg on days 8-16): 82%
effect on SP-333 stimulation of Isc (T84 cells monolayer): did not alter stimulation of Isc
effect on 1 μM SP-333-stimulated Isc (T84 cells monolayer; T84 cells): no effect
effect on SP-333 mediated enhancement in Isc (T84 cells monolayer; T84 monolayer, 1 μM SP-333 then opioid at 20 μM, FIG. 5B): inhibited
effect on SP-333 stimulation of Isc (rat jejunum tissue): did not alter stimulation of Isc
effect on 1 μM SP-333-stimulated Isc (rat jejunum tissue): no effect
average number of fecal pellets over 4 h, lower compared to the vehicle group ([2]; 10 mg/kg IP once daily for 5 days, light cycle): 63%
average number of fecal pellets ([2]; methadone alone 2.5 mg/kg IP once daily for 9 days): significant decrease in the average number of fecal pellets
GI transit ([3]; 2.5 mg/kg methadone IP alone (vs 55% in vehicle treated)): 28%
GI transit ([3]; 0.25, 2.5 and 5 mg/kg IP, rats): statistically significant reduction in GI transit
rat small intestine transit [4]: significantly delayed rat small intestine transit

CN1CC[C@]23c4c5ccc(O)c4O[C@H]2[C@@H](O)C=C[C@H]3[C@H]1C5 [morphine]
effect on SP-333 stimulation of Isc (T84 cells monolayer): did not alter stimulation of Isc
effect on 1 μM SP-333-stimulated Isc (T84 cells monolayer; T84 cells): negligible effect
GI transit ([5]; 2.5 mg/kg morphine IP alone (vs 53% in vehicle treated)): 23%
GI transit slowed compared to vehicle controls ([5]; single dose 0.25 mg/kg IP): 52%
GI transit slowed compared to vehicle controls ([5]; single dose 1.0 mg/kg IP): 56%
effect on SP-333 stimulation of Isc (rat jejunum tissue): did not alter stimulation of Isc
effect on 1 μM SP-333-stimulated Isc (rat jejunum tissue): negligible effect

[dN]DECELCVNVACTGC[dL] (disulfide 4-12, 7-15) [SP-333]
EC50 of stimulation of Isc across rat jejunum tissue, apical treatment [6]: 287 nM
EC50 of stimulation of Isc across T84 cells monolayer, apical treatment [7]: 215 nM
